According to patent publication US11013724B2, “Glutaminase inhibitors” (University of Pittsburgh—Of the Commonwealth System of …, priority 2014, dated 2021):

Assays:
[1] = tested on: MDA-MB 231 cancer cells; assay: MDA-MB-231 cell proliferation assay (cell counting on 6th day); format: cell-based; details: relative to prior art compound BPTES
Protocol: (§1) Cell culture media and serum were obtained from Invitrogen (Carlsbad, Calif.). All other reagents were obtained from Fisher Scientific (Pittsburgh, Pa.) or Sigma Aldrich (St. Louis, Mo.). MDA-MB-231 cells were purchased from ATCC (Manassas, Va.), and were cultured at 35° C., in 5% CO2, using RPMI-1640 media supplemented with 10% FBS, unless otherwise specified. Recombinant GAC was expressed in E. coli and purified. Briefly, human GAC (residues 72-603) was cloned into the pET28a vector from Novagen, and was expressed as a His6-tagged fusion protein in E. coli. It was then purified by ion exchange and size exclusion chromatography.
Cell assays: MDA-MB-231 cells were cultured in RPMI-1640 media supplemented with 10% FBS. Prior to initiating the assay, cells that were 70-80% confluent were trypsinized. These cells were diluted, counted, and dispensed into 12-well culture plates at a density of 2×10^4 cells per well. Each well was then brought to 1 mL of media, total. The cells were allowed to adhere to the wells overnight, at which point they were recounted (day 0 of the assay). […] Cells were counted on the 6th day of culture. […] Cells were then counted on a hemocytometer, with 3 readings taken and averaged per sample. […] Dose curves and IC50 values were determined in Sigmaplot, using the built-in four parameter logistic function.

[2] = target: recombinant GAC (human GAC, residues 72-603); assay: GAC enzyme assay (biochemical assay, glutamate dehydrogenase-coupled, absorbance at 340 nm); details: relative to prior art compound BPTES
Protocol: as §1
Biochemical assays: The GAC inhibitors were solvated in DMSO. Assay vessels were charged with 1 μL of inhibitor in order to effect the reported final concentration. To each vessel was added 95 μL of an aqueous solution containing 48 mM Tris-acetate (pH 8.6), 21 mM glutamine, and 50 nM recombinant GAC. Fifteen μL of either water or 1 M potassium phosphate, pH 8.2, were added to the mixture to begin the reaction. […] The absorbance of both the second and third reactions was recorded at […]. The third reaction was treated as a baseline, and its absorbance was subtracted from that of the second reaction prior to further data analysis. […] Dose curves and IC50 values were determined in Sigmaplot, using the built-in four parameter logistic function.

IC50 in the GAC enzyme assay compared directly to BPTES [2]: one order of magnitude better
Compound: O=C(Cc1ccccc1)Nc1nnc(OC2CCN(c3nnc(NC(=O)Cc4ccccc4)s3)CC2)s1 [UPGL00019, 2-Phenyl-N-{5-[1-(5-phenylacetylamino-[1,3,4]thiadiazol-2-yl)-piperidin-4-yloxy]-[1,3,4]thiadiazol-2-yl}-acetamide]
IC50 in inhibiting the proliferation of MDA-MB 231 cancer cells in vitro compared to BPTES [1]: better than BPTES by 2 orders of magnitude
